# Test results: US11766468B2, “Method of treating prostate cancer with GnRH antagonist” (priority 2012, dated 2023)
# Marks after values point to notes of the source that are not given here.
# Experiment: CS21 safety: treatment-emergent adverse events (MedDRA SOC/PT), crude incidence, also by subgroup
# Assay type: in vivo
# Conditions: for Musculoskeletal and connective tissue disorders, % of patients: pooled degarelix
# Method: The safety variables for this study were assessed on the following: the frequency and severity of adverse events (AEs); the presence of clinically significant changes in laboratory parameters (clinical chemistry, hematology and urinalysis); changes in electrocardiograms (ECGs) and vital signs; changes detected by physical examination; and body weight.
# An AE was therefore any unfavorable or unintended sign (including an abnormal laboratory finding), symptom or disease temporally associated with the use of the product, whether or not related to the IMP.
# An adverse drug reaction (ADR) was defined as an AE evaluated by the investigator as being probably or possibly related to treatment with the IMP.
# AEs were graded according to the National Cancer Institute (NCI) Common Terminology Criteria for Adverse Events (CTCAE). In accordance with the CTCAE criteria, AEs were rated on a five-point scale corresponding to mild, moderate, severe, life-threatening or disabling and death. For those AEs not described in the CTCAE, a separate five-point rating scale was used for rating of the intensity of AEs as follows below:
# Safety parameters were evaluated for all patients included in the ITT analysis set, comprising all 610 randomized patients who received at least one dose of study medication. All safety tables include four columns: the three treatment groups described separately, and the pooled degarelix group.
# Adverse events were regarded as ‘treatment-emergent’ if they occurred in the time interval from initial dosing to end-of-study. Adverse events were considered ‘pre-treatment’ if they occurred between screening and the initial injections of IMP. As described above, all AEs were classified according to MedDRA (version 10.0) system organ class (SOC), sorted alphabetically, and by preferred term (PT), in decreasing frequency of occurrence. Treatment-emergent AEs were expressed in terms of intensity (using NCI CTCAE) and relationship to study drug.
# Using the results from the summary of clinical efficacy (SCE) and summary of clinical safety (SCS) findings, different patient subgroups were analyzed. Subgroup distinguishers included race (white, black, and other), age (<65 years, […], and >75 years), weight (<70 kg, ≥70−<90 kg, and ≥90 kg), body mass index (BMI) (≤20, >20 to 30, and >30 kg/m^2)), region (North-America, Western Europe, Central and Eastern Europe and Other), and stage of prostate cancer (e.g., localized, locally advanced, and metastatic).
# [1] = degarelix Total (pooled), leuprolide 7.5 mg
# [2] = degarelix Total (pooled), leuprolide 7.5 mg, listed as leuprolide
smiles,measurement,setting,value
"CCNC(=O)[C@@H]1CCCN1C(=O)[C@H](CCCNC(=N)N)NC(=O)[C@H](CC(C)C)NC(=O)[C@@H](CC(C)C)NC(=O)[C@H](Cc1ccc(O)cc1)NC(=O)[C@H](CO)NC(=O)[C@H](Cc1c[nH]c2ccccc12)NC(=O)[C@H](Cc1c[nH]cn1)NC(=O)[C@@H]1CCC(=O)N1 [Leuprolide, leuprolide, reference compound]","Musculoskeletal and connective tissue disorders, % of patients",Age <65,(34%)**
same,"Musculoskeletal and connective tissue disorders, % of patients",PCA = Localised,(25%)
same,"Musculoskeletal and connective tissue disorders, % of patients",PCA = Locally advanced,(19%)
same,"Musculoskeletal and connective tissue disorders, % of patients",PCA = Metastatic,(36%)
same,"Musculoskeletal and connective tissue disorders, % of patients",Race = White,(26%)**
same,"Musculoskeletal and connective tissue disorders, % of patients",Weight <70 kg,(36%)*
same,"Musculoskeletal and connective tissue disorders, % of patients",Weight >=90 kg,(32%)*
same,"Deaths (Grade 5), % of patients",[1],4%
same,"Deaths (Grade 5), E events",[1],10
same,"Deaths (Grade 5), N patients",[1],9
same,"Infections & infestations, % of patients",[1],(24%)
same,"Musculoskeletal & connective tissue disorders, % of patients",[1],(26%)
same,"Skin & subcutaneous tissue disorders, % of patients",[1],( 5%)
same,"Urinary tract infection, % of patients",[1],( 9%)
same,"Infections & infestations, % of patients",[2],24%
same,"Musculoskeletal & connective tissue disorders, % of patients",[2],26%
same,"Urinary tract infection, % of patients",[2],9%
same,"Atrioventricular block first degree, % of patients",in vivo,(6%)*
same,"Bronchitis, % of patients",in vivo,( 8%)*
same,"Chest pain, % of patients",in vivo,( 3%)*
same,"Cystitis noninfective, % of patients",in vivo,(2%)*
same,"Deep vein thrombosis, % of patients",in vivo,(2%)*
same,"Depression, % of patients",in vivo,(6%)*
same,"Diarrhoea, % of patients",in vivo,(8%)*
same,"Dyspnoea, % of patients",in vivo,(6%)*
same,"Excoriation, % of patients",in vivo,( 4%)
same,"Fall, % of patients",in vivo,( 2%)
same,"Gynaecomastia, % of patients",in vivo,(3%)
same,"Injury, poisoning and procedural complications, % of patients",in vivo,(12%)**
same,"Investigations, % of patients",in vivo,(30%)
same,"Libido decreased, % of patients",in vivo,(3%)
same,"Musculoskeletal stiffness, % of patients",in vivo,(2%)*
same,"Myocardial ischaemia, % of patients",in vivo,( 3%)*
same,"Nervous system disorders, % of patients",in vivo,(10%)
same,"Orthostatic hypotension, % of patients",in vivo,(2%)*
same,"Pain in extremity, % of patients",in vivo,( 9%)
same,"Pelvic pain, % of patients",in vivo,(8%)*
same,"Psychiatric disorders, % of patients",in vivo,(14%)
same,"Respiratory, thoracic and mediastinal disorders, % of patients",in vivo,(10%)
same,"Syncope, % of patients",in vivo,(2%)*
same,"Vascular disorders, % of patients",in vivo,(30%)
